Laboratory results reported in patent US12138256B2, “Treatment of cardiopulmonary disorders” (Bayer Aktiengesellschaft, priority 2021, dated 2024).
“And” between values parts separate entries of the source, which are not always exact repeats. Equal entries are not always repeated.

What was measured:
rabbit saphenous artery = assay: Vasorelaxant effect in vitro: phenylephrine-induced contraction of rabbit saphenous artery rings (C-1.1); details: mean +/− SEM
Procedure: Rabbits were anaesthetized and sacrificed by intravenous injection of thiopental sodium (about 50 mg/kg) and exsanguinated. The saphenous artery was removed and divided into rings 3 mm wide. The rings were mounted singly on in each case a pair of triangular hooks open at the end and made of 0.3 mm-thick special wire (Remanium®). Each ring was placed under an initial tension in 5 ml organ baths with Krebs-Henseleit solution which was at 37° C., was gassed with carbogen and had the following composition: NaCl 119 mM; KCl 4.8 mM; CaCl2)×2 H2O 1 mM; MgSO4×7 H2O 1.4 mM; KH2PO41.2 mM; NaHCO325 mM; glucose 10 mM; bovine serum albumin 0.001%. The force of contraction was detected with Statham UC2 cells, amplified and digitized via A/D converters (DAS-1802 HC, Keithley Instruments, Munich) and recorded in parallel on chart recorders. Contractions were induced by addition of phenylephrine.
The concentration necessary to reduce the contraction reached in the preceding control by 50% was calculated from this (IC50). The standard application volume was 5 μl. The proportion of DMSO in the bath solution corresponded to 0.1%.

[1] = system: anesthetized PAH minipigs; assay: PAH minipig model: intratracheal application of dry powder formulations and different hydrates (PennCentury insufflator); format: in vivo, Göttingen minipig; details: for PAP % changes vs. baseline: 375 μg/kg i.t., each animal; for BP / PAP: micronized 375 μg/kg intratracheal @90 min
From the text: After characterization of the effects of comparative example 11 after nebulization of compound solutions, in a further step the effects of crystalline forms of comparative example 11, e.g. sesquihydrate, e.g. example 6e on PAP and BP after inhaled application of different dry powder lactose formulations (table C2.1.8) were studied in anesthetized PAH minipigs.
As reference pure Lactose vehicle was applied in the beginning of each experiment.

[2] = time not printed, 1st row after 310
[3] = time not printed, 2nd row after 310

Structure (SMILES): O=C(O)CCCCN(CCc1ccccc1OCc1ccc(CCc2ccccc2)cc1)Cc1ccc(C(=O)O)cc1 [comparative example 1 (Cinaciguat)]
- % contraction (PE-induced contraction of rabbit saphenous artery) (rabbit saphenous artery; 10^−6 M/L, incubation time 0.5 h): 19 ± 6.1%
- % contraction (PE-induced contraction of rabbit saphenous artery) (rabbit saphenous artery; 10^−7 M/L, incubation time 0.5 h): 28 ± 4.2%
- % contraction (PE-induced contraction of rabbit saphenous artery) (rabbit saphenous artery; 10^−7 M/L, incubation time 2.5 h): 33 ± 5.8%
- % contraction (PE-induced contraction of rabbit saphenous artery) (rabbit saphenous artery; 10^−8 M/L, incubation time 0.5 h): 54 ± 5.2%
- % contraction (PE-induced contraction of rabbit saphenous artery) (rabbit saphenous artery; 10^−8 M/L, incubation time 2.5 h): 48 ± 6.0%
- % contraction (PE-induced contraction of rabbit saphenous artery) (rabbit saphenous artery; 10^−9 M/L, incubation time 0.5 h): 85 ± 4.2%
- % contraction (PE-induced contraction of rabbit saphenous artery) (rabbit saphenous artery; 10^−9 M/L, incubation time 2.5 h): 75 ± 4.6%
- % contraction (PE-induced contraction of rabbit saphenous artery) (rabbit saphenous artery; 10^−10 M/L, incubation time 0.5 h): 101 ± 1.7%
- % contraction (PE-induced contraction of rabbit saphenous artery) (rabbit saphenous artery; 10^−10 M/L, incubation time 2.5 h): 93 ± 2.6%
- % contraction (PE-induced contraction of rabbit saphenous artery) (rabbit saphenous artery; 10^−11 M/L, incubation time 0.5 h): 97 ± 1.2%

Structure (SMILES): O.O.O.O=C(O)c1ccc(CCN(CCc2ccccc2OCc2ccc(-c3ccc(C(F)(F)F)cc3)cc2Cl)[C@H]2CCCc3nc(C(=O)O)ccc32)cc1.O=C(O)c1ccc(CCN(CCc2ccccc2OCc2ccc(-c3ccc(C(F)(F)F)cc3)cc2Cl)[C@H]2CCCc3nc(C(=O)O)ccc32)cc1 [example 6e, (5S)-{[2-(4-Carboxyphenyl)ethyl][2-(2-{[3-chloro-4′-(trifluoromethyl)biphenyl-4-yl]methoxy}phenyl)-ethyl]amino}-5,6,7,8-tetrahydroquinoline-2-carboxylic acid sesquihydrate]
- efficacy with regard to PAP reduction as well as systemic BP reduction ([1]; 1.5 mg/4 kg (=375 μg/kg) intratracheally, micronized): comparable efficacy
- effect on PAP and BP after i.t. application ([1]; lactose formulation I 7.5 μg/kg, II 22.5 μg/kg, micronized sesquihydrate 375 μg/kg, n=3): decrease of PAP without any effects on BP
- time to maximum effect on PAP after i.t. application ([1]; lactose formulation I 7.5 μg/kg, lactose formulation II 22.5 μg/kg, micronized sesquihydrate 375 μg/kg): approximately 80 min
- PAP % changes vs. baseline ([1]; time 80): 100.0%
- PAP % changes vs. baseline ([1]; time 90, sesquihydrate): 98.9% and 103.6% and 99.8%
- PAP % changes vs. baseline ([1]; time 100, sesquihydrate): 99.5% and 101.4% and 97.3%
- PAP % changes vs. baseline ([1]; time 110, sesquihydrate): 89.3% and 98.7% and 86.8%
- PAP % changes vs. baseline ([1]; time 120, sesquihydrate): 84.0% and 95.6% and 75.7%
- PAP % changes vs. baseline ([1]; time 130, sesquihydrate): 78.9% and 93.7% and 70.2%
- PAP % changes vs. baseline ([1]; time 140, sesquihydrate): 75.2% and 91.8% and 67.5%
- PAP % changes vs. baseline ([1]; time 150, sesquihydrate): 74.0% and 76.0% and 65.4%
- PAP % changes vs. baseline ([1]; time 160, sesquihydrate): 71.0% and 79.5% and 65.9%
- PAP % changes vs. baseline ([1]; time 170, sesquihydrate): 68.5% and 74.3% and 61.5%
- PAP % changes vs. baseline ([1]; time 180, sesquihydrate): 63.2% and 80.8% and 62.0%
- PAP % changes vs. baseline ([1]; time 190, sesquihydrate): 61.5% and 80.8% and 58.6%
- PAP % changes vs. baseline ([1]; time 200, sesquihydrate): 62.3% and 80.3% and 60.2%
- PAP % changes vs. baseline ([1]; time 210, sesquihydrate): 61.0% and 80.7% and 59.4%
- PAP % changes vs. baseline ([1]; time 220, sesquihydrate): 59.5% and 86.3% and 57.8%
- PAP % changes vs. baseline ([1]; time 230, sesquihydrate): 58.6% and 82.6% and 57.8%
- PAP % changes vs. baseline ([1]; time 240, sesquihydrate): 59.3% and 81.5% and 57.6%
- PAP % changes vs. baseline ([1]; time 250, sesquihydrate): 59.3% and 82.2% and 56.1%
- PAP % changes vs. baseline ([1]; time 260, sesquihydrate): 58.8% and 82.7% and 57.6%
- PAP % changes vs. baseline ([1]; time 270, sesquihydrate): 59.9% and 78.3% and 55.4%
- PAP % changes vs. baseline ([1]; time 280, sesquihydrate): 58.4% and 78.3% and 55.9%
- PAP % changes vs. baseline ([1]; time 290, sesquihydrate): 57.4% and 79.6% and 53.9%
- PAP % changes vs. baseline ([1]; time 300, sesquihydrate): 60.1% and 78.7% and 54.5%
- PAP % changes vs. baseline ([1]; time 310, sesquihydrate): 58.4% and 77.6% and 53.7%
- PAP % changes vs. baseline ([1]; time 320, sesquihydrate): 61.8% and 76.3% and 55.1%
- PAP % changes vs. baseline ([1]; time 330, sesquihydrate): 61.3% and 74.8% and 53.0%

Structure (SMILES): O.O.O.O=C(O)c1ccc(CCN(CCc2ccccc2OCc2ccc(-c3ccc(C(F)(F)F)cc3)cc2Cl)[C@H]2CCCc3nc(C(=O)O)ccc32)cc1.O=C(O)c1ccc(CCN(CCc2ccccc2OCc2ccc(-c3ccc(C(F)(F)F)cc3)cc2Cl)[C@H]2CCCc3nc(C(=O)O)ccc32)cc1 [sesquihydrate ex. 6e]
- BP ([1]; time 100): 99 mmHg and 111 mmHg and 117 mmHg
- PAP ([1]; time 100): 40.7 mmHg and 38.7 mmHg and 39.6 mmHg
- BP ([1]; time 110): 101 mmHg and 112 mmHg and 116 mmHg
- PAP ([1]; time 110): 36.5 mmHg and 37.6 mmHg and 35.4 mmHg
- BP ([1]; time 120): 101 mmHg and 114 mmHg and 115 mmHg
- PAP ([1]; time 120): 34.3 mmHg and 36.4 mmHg and 30.8 mmHg
- BP ([1]; time 130): 101 mmHg and 114 mmHg and 115 mmHg
- PAP ([1]; time 130): 32.3 mmHg and 35.7 mmHg and 28.6 mmHg
- BP ([1]; time 140): 99 mmHg and 120 mmHg and 114 mmHg
- PAP ([1]; time 140): 30.8 mmHg and 35.0 mmHg and 27.5 mmHg
- BP ([1]; time 150): 99 mmHg and 121 mmHg and 114 mmHg
- PAP ([1]; time 150): 30.3 mmHg and 29.0 mmHg and 26.6 mmHg
- BP ([1]; time 160): 100 mmHg and 122 mmHg and 114 mmHg
- PAP ([1]; time 160): 29.0 mmHg and 30.3 mmHg and 26.9 mmHg
- BP ([1]; time 170): 101 mmHg and 121 mmHg and 115 mmHg
- PAP ([1]; time 170): 28.0 mmHg and 28.3 mmHg and 25.1 mmHg
- BP ([1]; time 180): 99 mmHg and 119 mmHg and 115 mmHg
- PAP ([1]; time 180): 25.8 mmHg and 30.8 mmHg and 25.3 mmHg
- BP ([1]; time 190): 99 mmHg and 123 mmHg and 114 mmHg
- PAP ([1]; time 190): 25.1 mmHg and 30.8 mmHg and 23.9 mmHg
- BP ([1]; time 200): 98 mmHg and 116 mmHg and 113 mmHg
- PAP ([1]; time 200): 25.5 mmHg and 30.6 mmHg and 24.6 mmHg
- BP ([1]; time 210): 99 mmHg and 117 mmHg and 116 mmHg
- PAP ([1]; time 210): 25.0 mmHg and 30.8 mmHg and 24.2 mmHg
- BP ([1]; time 220): 97 mmHg and 123 mmHg and 114 mmHg
- PAP ([1]; time 220): 24.3 mmHg and 32.9 mmHg and 23.6 mmHg
- BP ([1]; time 230): 97 mmHg and 119 mmHg and 114 mmHg
- PAP ([1]; time 230): 24.0 mmHg and 31.5 mmHg and 23.6 mmHg
- BP ([1]; time 240): 97 mmHg and 119 mmHg and 112 mmHg
- PAP ([1]; time 240): 24.3 mmHg and 31.0 mmHg and 23.5 mmHg
- BP ([1]; time 250): 97 mmHg and 118 mmHg and 111 mmHg
- PAP ([1]; time 250): 24.2 mmHg and 31.3 mmHg and 22.9 mmHg
- BP ([1]; time 260): 96 mmHg and 116 mmHg and 112 mmHg
- PAP ([1]; time 260): 24.0 mmHg and 31.5 mmHg and 23.5 mmHg
- BP ([1]; time 270): 99 mmHg and 115 mmHg and 109 mmHg
- PAP ([1]; time 270): 24.5 mmHg and 29.8 mmHg and 22.6 mmHg
- BP ([1]; time 280): 97 mmHg and 111 mmHg and 110 mmHg
- PAP ([1]; time 280): 23.9 mmHg and 29.8 mmHg and 22.8 mmHg
- BP ([1]; time 290): 97 mmHg and 110 mmHg and 107 mmHg
- PAP ([1]; time 290): 23.5 mmHg and 30.3 mmHg and 22.0 mmHg
- BP ([1]; time 300): 98 mmHg and 109 mmHg and 108 mmHg
- PAP ([1]; time 300): 24.6 mmHg and 30.0 mmHg and 22.2 mmHg
- BP ([1]; time 310): 97 mmHg and 109 mmHg and 105 mmHg
- PAP ([1]; time 310): 23.9 mmHg and 29.6 mmHg and 21.9 mmHg
- BP [1, 2]: 94 mmHg and 108 mmHg and 105 mmHg
- PAP [1, 2]: 25.3 mmHg and 29.1 mmHg and 22.5 mmHg
- BP [1, 3]: 97 mmHg and 108 mmHg and 105 mmHg
- PAP [1, 3]: 25.1 mmHg and 28.5 mmHg and 21.6 mmHg
